This note sets out measurements from patent publication US11014905B2, “2,6-disubstituted pyridine derivative” (Sumitomo Dainippon Pharma Co., Ltd., priority 2017, dated 2021).

Series [1] can be described thus: Test 3-1: metabolic stability test of human liver microsome. It is filed as in vitro ADME. The settings on record: human liver microsome 0.1 mg/mL, test compound 0.1 μmol/L, 37° C., 30 minutes. Here is the method:
Test 3-1: Metabolic Stability Test of Human Liver Microsome
(§1) The stability of the present compounds for human liver microsome metabolism was evaluated as mentioned below. The used human liver microsome was obtained from Xenontech. Human liver microsome, NADPH, and each test compound were mixed in 25 mmol/L phosphate buffer solution (pH 7.4) to adjust each concentration as shown below, and the mixture was incubated at 37° C. for 30 minutes. • human liver microsome: 0.1 mg/mL • NAPDH: 3.2 mmol/L • test compound: 0.1 μmol/L
(§2) The residual ratio of the test compound in each sample after the incubation for 30 minutes was measured with a LC-MS, and the metabolic stability of human liver microsome was calculated about each test compound with the following formula. Metabolic stability of human liver microsome(mL/min/mg protein)=−LN(residual ratio)/“reaction time”/“concentration of human liver microsome”
In general terms: Liver microsomes are a subcellular fraction often used to study metabolism.

The nature of series [2]: Test 3-2: metabolic stability test of human liver microsome. The class given is in vitro ADME. The settings on record: human liver microsome 0.5 or 1.0 mg/mL, test compound 0.1 μmol/L, 37° C., 30 minutes. How it is done:
Test 3-2: Metabolic Stability Test of Human Liver Microsome
as §1, with “In order to evaluate the metabolic stability of human liver microsomes more precisely, the stability” for “The stability”, “evaluated with a suitable concentration of human liver microsome,” for “evaluated”, “microsome: 0.5 or 1.0” for “microsome: 0.1”
as §2

A further series has as its system Wistar male rat. The experiment in a line: Test 9: microdialysis test (intracerebral monoamine release). The class given is in vivo. The settings on record: in the combination administration with sertraline or in single administration. How it is done:
Test 9: Microdialysis Test
The effect of the present compound for the release amount of intracerebral monoamine was evaluated in a manner mentioned below.
8-Week-old Wistar male rat was fixed on a brain stereotaxic apparatus under anesthesia. The scalp was incised, the subcutaneous tissue was removed, the position of the bregma was measured, and the installation position of a guide cannula was calculated (the position of the orbitofrontal cortex which defined according to the brain stereotaxic coordinates of Paxinos & Watson (2.0 mm right, 4.2 mm anterior from bregma)). The skull was drilled with a dental drill at the installation position of the guide cannula, and an anchor screw was set about 1 cm posterior to the hole. The guide cannula was set and fixed with a dental cement, and then the scalp was sutured. The animal was released from the brain stereotaxic apparatus, and was moved back to the breeding cage. In the event of the test, the rat was put in an acrylic observable cage, and a dialysis probe was inserted along the guide cannula to connect to a free-moving tube. With an infusion pump, Ringer solution was perfused at 2 μL/min, and the dialysis solution was recovered at 20-minute intervals. […] The recovered dialysis solutions were analyzed with a HPLC-ECD system to determine the contents of norepinephrine (NE), dopamine (DA), and serotonin (5-HT).

The target in series [3] is T1, human 5-HT1A receptor (Homo sapiens (Human), UniProt P08908). The experiment in a line: Test 1: agonistic activity for human 5-HT1A receptor (aequorin luminescence, CHO-K1). The class given is cell-based. The settings on record: for EC50: CHO-K1 cell transiently expressing aequorin, Ga16 and receptor. How it is done:
(§3) Test 1: Evaluation of Agonistic Activity for Human 5-HT1A Receptor and Human D4 Receptor
(§4) Aequorin, Ga16 proteins, and each receptor were transiently expressed in CHO-K1 cell (Chinese hamster ovary), and seeded to 384-well plate. The plate was incubated in a CO2 incubator at 37° C. for 24 hours. Each example compound dissolved in DMSO was added thereto, and the change of luminescence amount was measured with Hamamatsu FDSS/μCELL System (Hamamatsu Photonics).

A further series addresses hERG channel (Homo sapiens (Human), UniProt Q12809). The experiment in a line: Test 5-2: activity for inhibiting hERG channel (whole-cell patch clamp, Qube). It is filed as cell-based. The note with it: hERG-CHO cell, auto patch clamp, read-out: hERG inhibition IC50. How it is done:
Test 5-2: Evaluation of Activity for Inhibiting hERG Channel
The activity of the present compound for inhibiting hERG channel was measured by whole-cell patch clamp method with auto patch clamp system, using CHO cell wherein hERG channel involved in human rapidly activating delayed rectifier potassium current (IKr) was forcibly expressed.
hERG-CHO cell purchased from ChanTest was incubated at 37° C. in a CO2 incubator, and the cell was exfoliated from the flask with trypsin to prepare a cell suspension, shortly before the hERG current measurement.
Extracellular fluid: 2 mmol/L CaCl2, 1 mmol/L MgCl2, 10 mmol/L HEPES, 4 mmol/L KCl, 145 mmol/L NaCl, 10 mmol/L glucose
Intracellular fluid: 10 mmol/L HEPES, 10 mmol/L EGTA, 20 mmol/L KCl, 130 mmol/L KF […]
The cell suspension, the extracellular fluid, the intracellular fluid, and the measurement plate were set in an auto patch clamp system, and the hERG current was measured by whole-cell patch clamp method. […] The test was carried out applying increscently 4 concentrations of each test compound, and the average of the peak tail currents that were obtained by the last 3 stimulations in each applied concentration was made to be the evaluated data. By using the current inhibition rate for the pre-applied current at each concentration of each test compound, IC50 value was calculated by Hill equation with the software.
Background: Block of hERG is tested as a sign of cardiac risk.

A further series deals with human D2 receptor (Homo sapiens (Human), UniProt P14416). The experiment in a line: Test 2: binding activity to human D2 receptor ([3H] spiperone). The settings on record: CHO cell membrane fraction, read-out: D2 binding affinity (Ki value). Here is the method:
(§5) Test 2: Evaluation of Binding Activity to Human 5-HT1A Receptor, Human D4 Receptor, and Human D2 Receptor
(§6) CHO cell membrane fraction in which human 5-HT1A receptor, human D4 receptor, and human D2 receptor were expressed was purchased from PerkinElmer Co., Ltd. In the evaluation test of binding, the test compound dissolved in DMSO, each receptor membrane preparation diluted with buffer solution, and [3H] […] The nonspecific binding to each receptor was evaluated by a competition binding experiment in the presence of 10 μmol/L 8-OH-DPAT, 10 μmol/L dopamine, or 10 μmol/L spiperone, respectively.

The target of series [4] is T2, human D4 receptor (Homo sapiens (Human), UniProt P21917). The experiment in a line: Test 2: binding activity to human D4 receptor ([3H] dopamine). The settings on record: CHO cell membrane fraction, read-out: D4 binding affinity (Ki value). How it is done: as §5, §6
For series [5], the target named is T1, human 5-HT1A receptor. The experiment in a line: Test 2: binding activity to human 5-HT1A receptor ([3H] 8-OH-DPAT). The settings on record: CHO cell membrane fraction, read-out: 5-HT1A binding affinity (Ki value). How it is done:
as §5, §6

For series [6], the target named is T2, human D4 receptor. The experiment in a line: Test 1: agonistic activity for human D4 receptor (aequorin luminescence, CHO-K1). It is filed as cell-based. The settings on record: for EC50: CHO-K1 cell transiently expressing aequorin, Ga16 and receptor. How it is done:
as §3, §4

[7] abbreviates: CHO-K1, 100% = 10 μmol/L endogenous ligand.
Setting [8] is: 100% = 10 μmol/L endogenous ligand.

T1 sequence (P08908 whole entry): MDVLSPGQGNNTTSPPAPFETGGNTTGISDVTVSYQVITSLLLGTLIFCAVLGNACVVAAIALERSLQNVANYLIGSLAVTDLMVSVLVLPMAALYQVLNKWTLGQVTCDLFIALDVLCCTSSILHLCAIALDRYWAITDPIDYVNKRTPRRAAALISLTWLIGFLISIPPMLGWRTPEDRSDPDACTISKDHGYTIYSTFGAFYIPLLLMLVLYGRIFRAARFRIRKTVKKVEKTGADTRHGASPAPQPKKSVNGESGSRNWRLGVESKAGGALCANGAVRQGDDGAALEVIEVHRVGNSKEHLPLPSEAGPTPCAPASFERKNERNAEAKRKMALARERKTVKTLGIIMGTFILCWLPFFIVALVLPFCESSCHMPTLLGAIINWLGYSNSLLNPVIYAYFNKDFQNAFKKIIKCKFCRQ
T2 sequence (P21917 whole entry): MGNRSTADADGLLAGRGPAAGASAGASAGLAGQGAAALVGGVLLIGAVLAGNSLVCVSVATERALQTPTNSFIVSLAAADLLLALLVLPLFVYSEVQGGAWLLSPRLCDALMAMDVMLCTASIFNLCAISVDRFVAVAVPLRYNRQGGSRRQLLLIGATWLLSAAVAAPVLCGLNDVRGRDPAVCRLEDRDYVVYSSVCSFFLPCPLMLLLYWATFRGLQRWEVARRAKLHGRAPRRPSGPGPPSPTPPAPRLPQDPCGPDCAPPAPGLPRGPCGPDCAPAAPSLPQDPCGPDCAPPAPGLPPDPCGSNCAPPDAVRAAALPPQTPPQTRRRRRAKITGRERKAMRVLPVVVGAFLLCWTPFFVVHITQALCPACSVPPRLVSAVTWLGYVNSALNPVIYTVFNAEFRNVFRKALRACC
Chain of hERG channel (Q12809 whole entry): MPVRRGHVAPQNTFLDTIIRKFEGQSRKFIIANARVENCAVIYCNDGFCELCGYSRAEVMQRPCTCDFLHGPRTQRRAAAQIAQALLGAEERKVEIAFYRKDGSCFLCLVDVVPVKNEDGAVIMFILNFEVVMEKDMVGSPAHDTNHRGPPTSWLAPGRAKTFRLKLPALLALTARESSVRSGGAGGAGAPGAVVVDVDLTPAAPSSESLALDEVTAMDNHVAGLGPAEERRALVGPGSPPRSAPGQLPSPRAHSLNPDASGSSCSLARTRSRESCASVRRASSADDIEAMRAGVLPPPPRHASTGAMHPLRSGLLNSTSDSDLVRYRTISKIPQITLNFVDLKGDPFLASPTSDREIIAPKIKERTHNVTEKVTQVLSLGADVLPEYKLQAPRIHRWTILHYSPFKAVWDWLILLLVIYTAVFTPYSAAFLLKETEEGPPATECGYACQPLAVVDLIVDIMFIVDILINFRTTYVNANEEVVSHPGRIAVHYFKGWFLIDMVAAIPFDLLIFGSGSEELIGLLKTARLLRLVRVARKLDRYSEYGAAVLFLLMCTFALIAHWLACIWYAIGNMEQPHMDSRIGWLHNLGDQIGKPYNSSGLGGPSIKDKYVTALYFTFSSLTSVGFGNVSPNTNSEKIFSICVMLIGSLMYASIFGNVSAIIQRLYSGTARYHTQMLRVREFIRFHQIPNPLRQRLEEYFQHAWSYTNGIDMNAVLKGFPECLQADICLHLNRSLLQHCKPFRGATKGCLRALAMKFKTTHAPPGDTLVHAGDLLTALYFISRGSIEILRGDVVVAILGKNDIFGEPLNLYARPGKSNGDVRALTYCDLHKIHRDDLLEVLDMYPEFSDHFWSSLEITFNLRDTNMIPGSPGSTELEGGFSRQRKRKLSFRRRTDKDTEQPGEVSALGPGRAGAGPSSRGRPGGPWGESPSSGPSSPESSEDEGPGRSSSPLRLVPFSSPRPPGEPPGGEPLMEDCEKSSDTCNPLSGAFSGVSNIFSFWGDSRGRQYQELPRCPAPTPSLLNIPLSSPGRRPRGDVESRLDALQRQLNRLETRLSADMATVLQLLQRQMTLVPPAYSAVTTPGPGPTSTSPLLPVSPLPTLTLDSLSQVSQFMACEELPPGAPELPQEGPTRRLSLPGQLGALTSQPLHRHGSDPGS
Chain of human D2 receptor (P14416 whole entry): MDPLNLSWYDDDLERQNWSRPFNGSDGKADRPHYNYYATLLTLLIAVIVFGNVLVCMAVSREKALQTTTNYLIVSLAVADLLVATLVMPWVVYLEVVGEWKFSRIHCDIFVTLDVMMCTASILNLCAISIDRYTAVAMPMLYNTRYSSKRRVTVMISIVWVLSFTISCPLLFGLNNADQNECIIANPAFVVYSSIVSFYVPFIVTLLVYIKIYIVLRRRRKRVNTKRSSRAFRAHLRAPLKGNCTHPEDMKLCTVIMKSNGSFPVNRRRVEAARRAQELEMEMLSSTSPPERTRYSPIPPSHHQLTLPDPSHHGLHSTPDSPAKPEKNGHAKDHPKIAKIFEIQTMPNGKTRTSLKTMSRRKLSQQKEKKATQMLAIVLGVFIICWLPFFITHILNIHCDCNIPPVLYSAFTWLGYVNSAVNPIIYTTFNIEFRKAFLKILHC

Consider `O=C(NCCN1CCC(c2cccc(C(F)(F)F)n2)CC1)C1CCC(F)(F)CC1` [Example 1, 4,4-Difluoro-N-(2-{4-[6-(trifluoromethyl)pyridin-2-yl]piperidin-1-yl}ethyl)cyclohexane-carboxamide], for which the “Metabolic stability of human liver microsome” value (from here on “Metabolic stability”) in series [1] turned out to be 0.073 mL/min/mg protein; in series [2], 0.031 mL/min/mg protein.

With `Cc1cccc(C2CCN(CCNC(=O)C3CCOCC3)CC2)n1` [Example 8, N-{2-[4-(6-Methylpyridin-2-yl)piperidin-1-yl]ethyl}-tetrahydro-2H-pyran-4-carboxamide], the entries for the “Metabolic stability” value in series [1] and in series [2] were 0.017 mL/min/mg protein and 0.023 mL/min/mg protein, respectively.

Take `CC(C)(C)C(=O)NCCN1CCC(c2cccc(C(F)(F)F)n2)CC1` [Example 9, 2,2-dimethyl-N-(2-{4-[6-(trifluoromethyl)pyridin-2-yl]piperidin-1-yl}ethyl)propanamide]: the “Metabolic stability” value in series [1] was 0.025 mL/min/mg protein; in series [2], 0.016 mL/min/mg protein.

Turning to `O=C(NCCN1CCC(c2cccc(C(F)(F)F)n2)CC1)C1CCOCC1` [Example 11, N-(2-{4-[6-(Trifluoromethyl)pyridin-2-yl]piperidin-1-yl}ethyl)-tetrahydro-2H-pyran-4-carboxamide], in series [2], the “Metabolic stability” value is listed as 0.0075 mL/min/mg protein. In the series on Wistar male rat, the “effect on serotonin content” value was “did not decrease the serotonin content”.

For orientation: Emax means the greatest response seen or fitted, relative to the assay's reference. The term EC50 denotes the midpoint of the concentration-response curve. A higher EC50 goes with weaker potency. Usually IC50 stands for the concentration that inhibits the measured activity by half. What is called Ki is the dissociation constant of the complex between target and ligand, obtained from inhibition or displacement. Take `Cc1cccc(C2CCN(CCNC(=O)C3CCCCO3)CC2)n1` (stereo not shown) [Example 20]: in series [1], the “Metabolic stability” value was less than 0.05 mL/min/mg protein. The Emax on human 5-HT1A receptor [3] (setting [7]) came out at 40%; on human D4 receptor [6] (setting [7]), 60%. The EC50 on human 5-HT1A receptor [3] is 57 nM; at human D4 receptor [6], 15 nM. Besides, at hERG channel, the IC50 was greater than 10 µM. The Ki is greater than 10 µM on human D2 receptor, 92 nM at human D4 receptor [4] and 6.8 nM on human 5-HT1A receptor [5].

As for `O=C(NCCN1CCC(c2cccc(C(F)(F)F)n2)CC1)C1CCOC1` (stereo not shown) [Example 25], the “Metabolic stability” value in [1] is recorded as less than 0.05 mL/min/mg protein. Besides, the “5-HT1A agonistic activity Emax” value at human 5-HT1A receptor [3] (setting [8]) is on record as 46%. In addition, the EC50 amounted to 67 nM on human 5-HT1A receptor [3] and 30 nM at human D4 receptor [6]. Besides, on hERG channel, the IC50 was greater than 10 µM. The Ki at human D2 receptor was determined as 3.33 µM; on human 5-HT1A receptor [5] it was 20 nM. Also, the “D4 agonistic activity Emax” value on human D4 receptor [6] (setting [8]) is 49%.
